Experiments:
[1] = neutral pH; cited from earlier work
[2] = tested on: Mobiluncus curtisii var. holmesii ATCC 35242; assay: Inhibition of bacteria growth, drug dilution tubes, anaerobic; assay type: cell-based; parameters: key: (+) for growth; (−) for no growth; (±) for suboptimal growth after an initial observation of growth
Procedure: (§1) Serial dilutions of tinidazole and terconazole were prepared by adding measured amounts of each substance to water (both individually and in combination). Seven bacterial organisms that are common pathogens in bacterial vaginosis were grown anaerobically in the medium as listed in Table 4 under a N2/H2/CO2 (85:5:10) head space atmosphere. [table] These cultures were diluted to a 0.5 McFarland standard prior to inoculation of drug dilution tubes. One (1) mL of the 0.5 McFarland preparation was inoculated to an anaerobically prepared test tube containing 0.8 mL of Difco anaerobic medium (DAMM) and 0.2 mL of appropriate diluted antimicrobial or antimicrobial combination for a total of 2 mL. The inoculated tubes were then incubated at 37° C. and monitored daily for growth. Growth was scored with a (+) for growth, (−) for no growth, and (±) for suboptimal growth after an initial observation of growth. Tinidazole is abbreviated as TNZ and terconazole is abbreviated as TER in Tables 5 through 11.

[3] = tested on: Bacteroides fragilis ATCC 25285; assay: as above; assay type: cell-based; parameters: key: (+) for growth; (−) for no growth; (±) for suboptimal growth after an initial observation of growth
Procedure: as §1

[4] = tested on: Gardnerella vaginalis ATCC 14018; assay: as above; assay type: cell-based; parameters: key: (+) for growth; (−) for no growth; (±) for suboptimal growth after an initial observation of growth
Procedure: as §1

For `CCS(=O)(=O)CCn1c([N+](=O)[O-])cnc1C` [TNZ, 1-[2-(ethylsulfonyl)ethyl]-2-methyl-5-nitroimidazole], the solubility in water [1] is given as “about 0.45 percent by weight”, the growth ([2]; TNZ 2 μg/ml, DAY 1) is given as “(+)” and the growth ([2]; TNZ 2 μg/ml, DAY 2) is given as “(+)”. For the same molecule, the growth ([2]; TNZ 2 μg/ml, DAY 3) was “(+)”, the growth ([2]; TNZ 2 μg/ml, DAY 4) was “(+)” and the growth ([2]; TNZ 2 μg/ml, DAY 5) was “(+)”. The growth ([2]; TNZ 3.9 μg/ml, DAY 1) was “(+)”, the growth ([2]; TNZ 3.9 μg/ml, DAY 2) was “(+)” and the growth ([2]; TNZ 3.9 μg/ml, DAY 3) was “(+)”. For the same molecule, the growth ([2]; TNZ 3.9 μg/ml, DAY 4) was “(+)”, the growth ([2]; TNZ 3.9 μg/ml, DAY 5) was “(+)” and the growth ([2]; TNZ 7.8 μg/ml, DAY 1) was “(+)”. The growth ([2]; TNZ 7.8 μg/ml, DAY 2) was “(+)”, the growth ([2]; TNZ 7.8 μg/ml, DAY 3) was “(+)” and the growth ([2]; TNZ 7.8 μg/ml, DAY 4) was “(+)”. For the same molecule, the growth ([2]; TNZ 7.8 μg/ml, DAY 5) was “(+)”, the growth ([2]; TNZ 15.6 μg/ml, DAY 1) was “(+)” and the growth ([2]; TNZ 15.6 μg/ml, DAY 2) was “(+)”. For the same molecule, the growth ([2]; TNZ 15.6 μg/ml, DAY 3) was “(+)”, the growth ([2]; TNZ 15.6 μg/ml, DAY 4) was “(+)” and the growth ([2]; TNZ 15.6 μg/ml, DAY 5) was “(+)”. The growth ([2]; TNZ 31.3 μg/ml, DAY 1) was “(+)”, the growth ([2]; TNZ 31.3 μg/ml, DAY 2) was “(+)” and the growth ([2]; TNZ 31.3 μg/ml, DAY 3) was “(+)”. For the same molecule, the growth ([2]; TNZ 31.3 μg/ml, DAY 4) was “(+)”, the growth ([2]; TNZ 31.3 μg/ml, DAY 5) was “(+)” and the growth ([2]; TNZ 62.5 μg/ml, DAY 1) was “(+)”. The growth ([2]; TNZ 62.5 μg/ml, DAY 2) was “(+)”, the growth ([2]; TNZ 62.5 μg/ml, DAY 3) was “(+)” and the growth ([2]; TNZ 62.5 μg/ml, DAY 4) was “(+)”. For the same molecule, the growth ([2]; TNZ 62.5 μg/ml, DAY 5) was “(+)”, the growth ([2]; TNZ 125 μg/ml, DAY 1) was “(+)” and the growth ([2]; TNZ 125 μg/ml, DAY 2) was “(+)”. The growth ([2]; TNZ 125 μg/ml, DAY 3) was “(+)”, the growth ([2]; TNZ 125 μg/ml, DAY 4) was “(+)” and the growth ([2]; TNZ 125 μg/ml, DAY 5) was “(+)”. For the same molecule, the growth ([2]; TNZ 250 μg/ml, DAY 1) was “(+)”, the growth ([2]; TNZ 250 μg/ml, DAY 2) was “(+)” and the growth ([2]; TNZ 250 μg/ml, DAY 3) was “(+)”. For the same molecule, the growth ([2]; TNZ 250 μg/ml, DAY 4) was “(+)”, the growth ([2]; TNZ 250 μg/ml, DAY 5) was “(+)” and the growth ([2]; TNZ 500 μg/ml, DAY 1) was “(+)”. The growth ([2]; TNZ 500 μg/ml, DAY 2) was “(+)”, the growth ([2]; TNZ 500 μg/ml, DAY 3) was “(+)” and the growth ([2]; TNZ 500 μg/ml, DAY 4) was “(+)”. For the same molecule, the growth ([2]; TNZ 500 μg/ml, DAY 5) was “(+)”, the growth ([3]; TNZ 2 μg/ml, DAY 1) was “(−)” and the growth ([3]; TNZ 2 μg/ml, DAY 2) was “(−)”. The growth ([3]; TNZ 2 μg/ml, DAY 3) was “(−)”, the growth ([3]; TNZ 2 μg/ml, DAY 4) was “(−)” and the growth ([3]; TNZ 2 μg/ml, DAY 5) was “(+)”. For the same molecule, the growth ([3]; TNZ 3.9 μg/ml, DAY 1) was “(−)”, the growth ([3]; TNZ 3.9 μg/ml, DAY 2) was “(−)” and the growth ([3]; TNZ 3.9 μg/ml, DAY 3) was “(−)”. The growth ([3]; TNZ 3.9 μg/ml, DAY 4) was “(−)”, the growth ([3]; TNZ 3.9 μg/ml, DAY 5) was “(−)” and the growth ([3]; TNZ 7.8 μg/ml, DAY 1) was “(−)”. The growth ([3]; TNZ 7.8 μg/ml, DAY 2) was “(−)”, the growth ([3]; TNZ 7.8 μg/ml, DAY 3) was “(−)” and the growth ([3]; TNZ 7.8 μg/ml, DAY 4) was “(−)”. For the same molecule, the growth ([3]; TNZ 7.8 μg/ml, DAY 5) was “(−)”, the growth ([3]; TNZ 15.6 μg/ml, DAY 1) was “(−)” and the growth ([3]; TNZ 15.6 μg/ml, DAY 2) was “(−)”. The growth ([3]; TNZ 15.6 μg/ml, DAY 3) was “(−)”, the growth ([3]; TNZ 15.6 μg/ml, DAY 4) was “(−)” and the growth ([3]; TNZ 15.6 μg/ml, DAY 5) was “(−)”. The growth ([3]; TNZ 31.3 μg/ml, DAY 1) was “(−)”, the growth ([3]; TNZ 31.3 μg/ml, DAY 2) was “(−)” and the growth ([3]; TNZ 31.3 μg/ml, DAY 3) was “(−)”. For the same molecule, the growth ([3]; TNZ 31.3 μg/ml, DAY 4) was “(−)”, the growth ([3]; TNZ 31.3 μg/ml, DAY 5) was “(−)” and the growth ([3]; TNZ 62.5 μg/ml, DAY 1) was “(−)”. The growth ([3]; TNZ 62.5 μg/ml, DAY 2) was “(−)”, the growth ([3]; TNZ 62.5 μg/ml, DAY 3) was “(−)” and the growth ([3]; TNZ 62.5 μg/ml, DAY 4) was “(−)”. For the same molecule, the growth ([3]; TNZ 62.5 μg/ml, DAY 5) was “(−)”, the growth ([3]; TNZ 125 μg/ml, DAY 1) was “(−)” and the growth ([3]; TNZ 125 μg/ml, DAY 2) was “(−)”. The growth ([3]; TNZ 125 μg/ml, DAY 3) was “(−)”, the growth ([3]; TNZ 125 μg/ml, DAY 4) was “(−)” and the growth ([3]; TNZ 125 μg/ml, DAY 5) was “(−)”. For the same molecule, the growth ([3]; TNZ 250 μg/ml, DAY 1) was “(−)”, the growth ([3]; TNZ 250 μg/ml, DAY 2) was “(−)” and the growth ([3]; TNZ 250 μg/ml, DAY 3) was “(−)”. For the same molecule, the growth ([3]; TNZ 250 μg/ml, DAY 4) was “(−)”, the growth ([3]; TNZ 250 μg/ml, DAY 5) was “(−)” and the growth ([3]; TNZ 500 μg/ml, DAY 1) was “(−)”. The growth ([3]; TNZ 500 μg/ml, DAY 2) was “(−)”, the growth ([3]; TNZ 500 μg/ml, DAY 3) was “(−)” and the growth ([3]; TNZ 500 μg/ml, DAY 4) was “(−)”. The growth ([3]; TNZ 500 μg/ml, DAY 5) was “(−)”, the growth ([4]; TNZ 2 μg/ml, DAY 1) was “(+)” and the growth ([4]; TNZ 2 μg/ml, DAY 2) was “(+)”. For the same molecule, the growth ([4]; TNZ 2 μg/ml, DAY 3) was “(+)”, the growth ([4]; TNZ 2 μg/ml, DAY 4) was “(+)” and the growth ([4]; TNZ 2 μg/ml, DAY 5) was “(+)”. The growth ([4]; TNZ 3.9 μg/ml, DAY 1) was “(+)”, the growth ([4]; TNZ 3.9 μg/ml, DAY 2) was “(+)” and the growth ([4]; TNZ 3.9 μg/ml, DAY 3) was “(+)”. The growth ([4]; TNZ 3.9 μg/ml, DAY 4) was “(+)”, the growth ([4]; TNZ 3.9 μg/ml, DAY 5) was “(+)” and the growth ([4]; TNZ 7.8 μg/ml, DAY 1) was “(−)”. For the same molecule, the growth ([4]; TNZ 7.8 μg/ml, DAY 2) was “(+)”, the growth ([4]; TNZ 7.8 μg/ml, DAY 3) was “(+)” and the growth ([4]; TNZ 7.8 μg/ml, DAY 4) was “(+)”. The growth ([4]; TNZ 7.8 μg/ml, DAY 5) was “(+)”, the growth ([4]; TNZ 15.6 μg/ml, DAY 1) was “(−)” and the growth ([4]; TNZ 15.6 μg/ml, DAY 2) was “(+)”. The growth ([4]; TNZ 15.6 μg/ml, DAY 3) was “(+)”, the growth ([4]; TNZ 15.6 μg/ml, DAY 4) was “(+)” and the growth ([4]; TNZ 15.6 μg/ml, DAY 5) was “(+)”. For the same molecule, the growth ([4]; TNZ 31.3 μg/ml, DAY 1) was “(−)”, the growth ([4]; TNZ 31.3 μg/ml, DAY 2) was “(−)” and the growth ([4]; TNZ 31.3 μg/ml, DAY 3) was “(−)”. For the same molecule, the growth ([4]; TNZ 31.3 μg/ml, DAY 4) was “(−)”, the growth ([4]; TNZ 31.3 μg/ml, DAY 5) was “(−)” and the growth ([4]; TNZ 62.5 μg/ml, DAY 1) was “(−)”. For the same molecule, the growth ([4]; TNZ 62.5 μg/ml, DAY 2) was “(−)”, the growth ([4]; TNZ 62.5 μg/ml, DAY 3) was “(−)” and the growth ([4]; TNZ 62.5 μg/ml, DAY 4) was “(−)”. For the same molecule, the growth ([4]; TNZ 62.5 μg/ml, DAY 5) was “(−)”, the growth ([4]; TNZ 125 μg/ml, DAY 1) was “(−)” and the growth ([4]; TNZ 125 μg/ml, DAY 2) was “(−)”. For the same molecule, the growth ([4]; TNZ 125 μg/ml, DAY 3) was “(−)”, the growth ([4]; TNZ 125 μg/ml, DAY 4) was “(−)” and the growth ([4]; TNZ 125 μg/ml, DAY 5) was “(−)”. For the same molecule, the growth ([4]; TNZ 250 μg/ml, DAY 1) was “(−)”, the growth ([4]; TNZ 250 μg/ml, DAY 2) was “(−)” and the growth ([4]; TNZ 250 μg/ml, DAY 3) was “(−)”. For the same molecule, the growth ([4]; TNZ 250 μg/ml, DAY 4) was “(−)”, the growth ([4]; TNZ 250 μg/ml, DAY 5) was “(−)” and the growth ([4]; TNZ 500 μg/ml, DAY 1) was “(−)”. The growth ([4]; TNZ 500 μg/ml, DAY 2) was “(−)”, the growth ([4]; TNZ 500 μg/ml, DAY 3) was “(−)” and the growth ([4]; TNZ 500 μg/ml, DAY 4) was “(−)”. For the same molecule, the growth ([4]; TNZ 500 μg/ml, DAY 5) was “(−)”.
